Measurements: BigSolDB 2.1

## O=C(O)c1cc(O)c(O)c(O)c1
In water, 292.18 K
  solubility (mole fraction): 0.00098
In water, 298 K
  solubility (mole fraction): 0.0011
In water, 303.09 K
  solubility (mole fraction): 0.00142
In water, 308.21 K
  solubility (mole fraction): 0.0019
In water, 313.04 K
  solubility (mole fraction): 0.00244
In water, 318.15 K
  solubility (mole fraction): 0.00328
In water, 323.15 K
  solubility (mole fraction): 0.00427
In water, 327.85 K
  solubility (mole fraction): 0.00523
In water, 333.15 K
  solubility (mole fraction): 0.00693

## COc1ccc(C(=O)O)cc1OC
In 2-butanone, 278.95 K
  solubility (mole fraction): 0.0068
In 2-butanone, 283.15 K
  solubility (mole fraction): 0.0077
In 2-butanone, 287.95 K
  solubility (mole fraction): 0.0089
In 2-butanone, 293.32 K
  solubility (mole fraction): 0.0104
In 2-butanone, 298.13 K
  solubility (mole fraction): 0.012
In 2-butanone, 303.15 K
  solubility (mole fraction): 0.014
In 2-butanone, 308.37 K
  solubility (mole fraction): 0.0162
In 2-butanone, 313.05 K
  solubility (mole fraction): 0.0184
In 2-butanone, 318.15 K
  solubility (mole fraction): 0.0212
In 2-butanone, 323.49 K
  solubility (mole fraction): 0.0246
In ethanol, 278.15 K
  solubility (mole fraction): 0.0035
In ethanol, 282.93 K
  solubility (mole fraction): 0.0042
In ethanol, 288.21 K
  solubility (mole fraction): 0.0051
In ethanol, 293.08 K
  solubility (mole fraction): 0.0062
In ethanol, 298 K
  solubility (mole fraction): 0.0074
In ethanol, 303.33 K
  solubility (mole fraction): 0.0093
In ethanol, 307.9 K
  solubility (mole fraction): 0.011
In ethanol, 313.3 K
  solubility (mole fraction): 0.0136
In ethanol, 317.15 K
  solubility (mole fraction): 0.0161
In ethanol, 323.3 K
  solubility (mole fraction): 0.0203
In ethyl acetate, 278.3 K
  solubility (mole fraction): 0.0037
In ethyl acetate, 283.01 K
  solubility (mole fraction): 0.0044
In ethyl acetate, 288.05 K
  solubility (mole fraction): 0.0052
In ethyl acetate, 293.15 K
  solubility (mole fraction): 0.0061
In ethyl acetate, 298 K
  solubility (mole fraction): 0.0072
In ethyl acetate, 303.13 K
  solubility (mole fraction): 0.0083
In ethyl acetate, 308.07 K
  solubility (mole fraction): 0.0099
In ethyl acetate, 313.15 K
  solubility (mole fraction): 0.0116
In ethyl acetate, 318.06 K
  solubility (mole fraction): 0.0133
In ethyl acetate, 323.37 K
  solubility (mole fraction): 0.0157
In isobutanol, 277.9 K
  solubility (mole fraction): 0.0015
In isobutanol, 283.25 K
  solubility (mole fraction): 0.002
In isobutanol, 288.15 K
  solubility (mole fraction): 0.0026
In isobutanol, 293.04 K
  solubility (mole fraction): 0.0032
In isobutanol, 298.15 K
  solubility (mole fraction): 0.0041
In isobutanol, 302.94 K
  solubility (mole fraction): 0.0052
In isobutanol, 308.1 K
  solubility (mole fraction): 0.0066
In isobutanol, 313.15 K
  solubility (mole fraction): 0.0083
In isobutanol, 318.01 K
  solubility (mole fraction): 0.0105
In isobutanol, 323.33 K
  solubility (mole fraction): 0.0132
In isopropanol, 278.37 K
  solubility (mole fraction): 0.0024
In isopropanol, 283.05 K
  solubility (mole fraction): 0.003
In isopropanol, 288.39 K
  solubility (mole fraction): 0.0039
In isopropanol, 294.07 K
  solubility (mole fraction): 0.0051
In isopropanol, 299 K
  solubility (mole fraction): 0.0063
In isopropanol, 303.17 K
  solubility (mole fraction): 0.0074
In isopropanol, 308.27 K
  solubility (mole fraction): 0.0095
In isopropanol, 313.13 K
  solubility (mole fraction): 0.0118
In isopropanol, 318.15 K
  solubility (mole fraction): 0.015
In isopropanol, 323.2 K
  solubility (mole fraction): 0.0183
In methyl acetate, 278.3 K
  solubility (mole fraction): 0.0042
In methyl acetate, 283.01 K
  solubility (mole fraction): 0.0049
In methyl acetate, 288.05 K
  solubility (mole fraction): 0.0058
In methyl acetate, 293.15 K
  solubility (mole fraction): 0.0068
In methyl acetate, 298 K
  solubility (mole fraction): 0.008
In methyl acetate, 303.13 K
  solubility (mole fraction): 0.0095
In methyl acetate, 308.07 K
  solubility (mole fraction): 0.0111
In methyl acetate, 313.15 K
  solubility (mole fraction): 0.0131
In methyl acetate, 318.06 K
  solubility (mole fraction): 0.0152
In methyl acetate, 323.37 K
  solubility (mole fraction): 0.0177
In n-butanol, 277.9 K
  solubility (mole fraction): 0.0025
In n-butanol, 283.25 K
  solubility (mole fraction): 0.003
In n-butanol, 288.15 K
  solubility (mole fraction): 0.0037
In n-butanol, 293.04 K
  solubility (mole fraction): 0.0046
In n-butanol, 298.15 K
  solubility (mole fraction): 0.0057
In n-butanol, 302.94 K
  solubility (mole fraction): 0.007
In n-butanol, 308.1 K
  solubility (mole fraction): 0.0089
In n-butanol, 313.15 K
  solubility (mole fraction): 0.011
In n-butanol, 318.01 K
  solubility (mole fraction): 0.0134
In n-butanol, 323.33 K
  solubility (mole fraction): 0.0168
In n-propanol, 278.37 K
  solubility (mole fraction): 0.0027
In n-propanol, 283.05 K
  solubility (mole fraction): 0.0033
In n-propanol, 288.39 K
  solubility (mole fraction): 0.0042
In n-propanol, 293.3 K
  solubility (mole fraction): 0.0051
In n-propanol, 299 K
  solubility (mole fraction): 0.0066
In n-propanol, 303.17 K
  solubility (mole fraction): 0.0079
In n-propanol, 308.27 K
  solubility (mole fraction): 0.0097
In n-propanol, 313.13 K
  solubility (mole fraction): 0.0118
In n-propanol, 318.15 K
  solubility (mole fraction): 0.0146
In n-propanol, 323.2 K
  solubility (mole fraction): 0.0177
